Paper PMC7588595, “Small-molecule active pharmaceutical ingredients of approved cancer therapeutics inhibit human aspartate/asparagine-β-hydroxylase” (Bioorganic & Medicinal Chemistry, 2020)
Structures can show the parent of a compound that is named as a salt. Where two headings read alike, the source gives them in different places.

Target: T1, human AspH (His6-AspH315–758) (Homo sapiens, UniProt Q12797)
T1 construct: N-Terminally His6-tagged human AspH315–758 (His6-AspH315–758) was produced in Escherichia coli BL21 (DE3) cells; made in house; host or cells: Escherichia coli BL21 (DE3), pET-28a(+) vector
T1 sequence (Q12797 315-758): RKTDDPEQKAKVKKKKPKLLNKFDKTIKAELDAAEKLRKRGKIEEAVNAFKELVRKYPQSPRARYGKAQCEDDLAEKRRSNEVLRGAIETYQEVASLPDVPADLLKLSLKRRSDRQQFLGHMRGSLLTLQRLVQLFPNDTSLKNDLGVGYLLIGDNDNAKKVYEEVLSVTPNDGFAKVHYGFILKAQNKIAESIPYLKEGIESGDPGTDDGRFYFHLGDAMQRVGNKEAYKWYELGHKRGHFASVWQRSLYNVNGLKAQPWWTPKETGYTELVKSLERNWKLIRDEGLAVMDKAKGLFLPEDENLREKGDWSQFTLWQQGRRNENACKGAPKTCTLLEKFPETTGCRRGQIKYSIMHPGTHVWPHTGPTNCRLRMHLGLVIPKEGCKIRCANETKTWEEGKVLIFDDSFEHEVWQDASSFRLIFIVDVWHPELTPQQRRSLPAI
Experiment: SPE-MS AspH inhibition assay (hFX-CP101-119 substrate hydroxylation)
Type: biochemical

[1] = AspH-inhibitor screening, 384-well Plate 1
[2] = AspH-inhibitor screening, 384-well Plate 1, substrate conversion
[3] = AspH-inhibitor screening, Plate 1-duplicate
[4] = AspH-inhibitor screening, Plate 1-duplicate, substrate conversion

Row | Plate 1 (% inhibition) [1] | Plate 1 (% conversion) [2] | Plate 1-duplicate (% inhibition) [3] | Plate 1-duplicate (% conversion) [4] | SMILES | Plate 1 (% conversion) | Plate 1 (% inhibition) | Plate 1-duplicate (% conversion) | Plate 1-duplicate (% inhibition)
1 | 8.11% | 46.01% | 6.00% | 49.07% | CC(=O)Oc1ccccc1C(=O)O [Aspirin (Acetylsalicylic Acid)] | – | – | – | –
2 | 0.59% | 49.48% | -0.34% | 52.21% | CNC(=O)c1ccccc1Sc1ccc2c(/C=C/c3ccccn3)n[nH]c2c1 [Axitinib] | – | – | – | –
3 | 17.64% | 41.61% | 12.26% | 45.96% | Nc1ncn([C@@H]2O[C@H](CO)[C@@H](O)[C@H]2O)c(=O)n1 [Azacitidine] | – | – | – | –
4 | 62.82% | 20.74% | 53.45% | 25.53% | CNC(=O)c1cc(Oc2ccc(NC(=O)Nc3ccc(Cl)c(C(F)(F)F)c3)c(F)c2)ccn1 [BAY 73-4506_Regorafenib] | – | – | – | –
5 | -13.53% | 56.00% | -2.41% | 53.24% | COC(=O)c1ccc2c(c1)NC(=O)/C2=C(\Nc1ccc(N(C)C(=O)CN2CCN(C)CC2)cc1)c1ccccc1 [BIBF 1120_Nintedanib] | – | – | – | –
6 | -24.14% | 60.90% | -42.32% | 73.03% | CN(C)C/C=C/C(=O)Nc1cc2c(Nc3ccc(F)c(Cl)c3)ncnc2cc1O[C@H]1CCOC1 [BIBW2992 (Tovok)_Afatinib] | – | – | – | –
7 | 5.65% | 47.14% | 5.00% | 49.56% | COc1c(C)cnc(Cn2cnc3c(Cl)nc(N)nc32)c1C [BIIB021] | – | – | – | –
8 | 1.72% | 48.96% | -1.07% | 52.57% | Nc1cc(C(F)(F)F)c(-c2cc(N3CCOCC3)nc(N3CCOCC3)n2)cn1 [BKM-120_Buparlisib] | – | – | – | –
9 | -9.55% | 54.16% | -14.91% | 59.44% | CCn1c(C(=O)N(C2CC2)C2CC2)cc2c3c(ncn3C)c(Nc3cc(C)n(C)n3)nc21 [BMS-911543] | – | – | – | –
10 | 97.27% | 4.83% | 96.98% | 3.94% | O=C(/C=C/c1cccc(S(=O)(=O)Nc2ccccc2)c1)NO [Belinostat (PXD101)] | – | – | – | –
11 | -5.40% | 52.24% | -0.39% | 52.24% | C=C(c1ccc(C(=O)O)cc1)c1cc2c(cc1C)C(C)(C)CCC2(C)C [Bexarotene] | – | – | – | –
12 | -1.86% | 50.61% | -1.99% | 53.03% | CCNC(=O)CCC/C=C\C[C@@H]1[C@@H](/C=C/[C@@H](O)CCc2ccccc2)[C@H](O)C[C@@H]1O [Bimatoprost] | – | – | – | –
13 | 6.81% | 46.61% | 7.89% | 48.13% | CC(C)C[C@H](NC(=O)[C@H](Cc1ccccc1)NC(=O)c1cnccn1)B(O)O [Bortezomib] | – | – | – | –
14 | -48.53% | 72.16% | -50.33% | 77.00% | COc1cc(Nc2c(C#N)cnc3cc(OCCCN4CCN(C)CC4)c(OC)cc23)c(Cl)cc1Cl [Bosutinib] | – | – | – | –
15 | 6.97% | 46.53% | 3.72% | 50.20% | Cc1cc2c(F)c(Oc3ncnn4cc(OC[C@@H](C)O)c(C)c34)ccc2[nH]1 [Brivanib] | – | – | – | –
16 | 14.61% | 43.00% | 8.69% | 47.73% | CS(=O)(=O)OCCCCOS(C)(=O)=O [Busulfan] | – | – | – | –

More lines, now with the values behind:

Row | SMILES | Plate 1 (% inhibition) [1] | Plate 1 (% conversion) [2] | Plate 1-duplicate (% inhibition) [3] | Plate 1-duplicate (% conversion) [4] | Plate 1 (% conversion) | Plate 1 (% inhibition) | Plate 1-duplicate (% conversion) | Plate 1-duplicate (% inhibition)
17 | NCC(=O)CCC(=O)O [Aminolevulinic acid hydrochloride] | 20.47% | 40.30% | 25.89% | 39.20% | – | – | – | –
18 | CN(C)CCN1C(=O)c2cccc3cc(N)cc(c23)C1=O [Amonafide] | 4.40% | 47.72% | 3.28% | 50.42% | – | – | – | –
19 | O=C1CN2Cc3c(ccc(Cl)c3Cl)N=C2N1 [Anagrelide] | 0.57% | 49.49% | 0.27% | 51.91% | – | – | – | –
20 | CC(C)(C#N)c1cc(Cn2cncn2)cc(C(C)(C)C#N)c1 [Anastrozole] | 2.34% | 48.67% | 3.84% | 50.14% | – | – | – | –
21 | O=[As]O[As]=O (centres unmarked) [Arsenic(III) oxide] | – | – | – | – | 46.14% | 7.82% | 49.86% | 4.39%
22 | CC(C)c1c(C(=O)Nc2ccccc2)c(-c2ccccc2)c(-c2ccc(F)cc2)n1CC[C@@H](O)C[C@@H](O)CC(=O)[O-].CC(C)c1c(C(=O)Nc2ccccc2)c(-c2ccccc2)c(-c2ccc(F)cc2)n1CC[C@@H](O)C[C@@H](O)CC(=O)[O-].[Ca+2] [Atorvastatin Ca] | – | – | – | – | – | 0.42% | – | -1.82%
23 | CC(=O)OC[C@H]1O[C@@H]([S-])[C@H](OC(C)=O)[C@@H](OC(C)=O)[C@@H]1OC(C)=O.CCP(CC)CC.[Au+] [Auranofin] | 60.34% | 21.89% | 55.51% | 24.51% | – | – | – | –
24 | CC[C@@H]1C(=O)N(C)c2cnc(Nc3ccc(C(=O)N[C@H]4CC[C@H](N5CCN(CC6CC6)CC5)CC4)cc3OC)nc2N1C(C)C [BI 6727_Volasertib] | -9.00% | 53.91% | -19.71% | 61.82% | – | – | – | –
25 | Cc1ccc(-n2nc(C(C)(C)C)cc2NC(=O)Nc2ccc(OCCN3CCOCC3)c3ccccc23)cc1 [BIRB 796 (Doramapimod)] | 7.83% | 46.14% | 2.76% | 50.67% | – | – | – | –
26 | Cl.Cn1c(CCCC(=O)O)nc2cc(N(CCCl)CCCl)ccc21 [Bendamustine hydrochloride] | 2.89% | 48.41% | 4.93% | 49.60% | – | – | – | –
27 | CC(O)(CS(=O)(=O)c1ccc(F)cc1)C(=O)Nc1ccc(C#N)c(C(F)(F)F)c1 (centres unmarked) [Bicalutamide] | -2.20% | 50.76% | 0.00746% | 52.04% | – | – | – | –
28 | CC[C@H](Nc1ncnc2[nH]cnc12)c1nc2cccc(F)c2c(=O)n1-c1ccccc1 [CAL-101] | 5.28% | 47.31% | 3.08% | 50.52% | – | – | – | –
